Reference: US20250228814A1, “COMBINATION THERAPIES FOR THE TREATMENT OF VIRAL INFECTIONS” (Flagship Pioneering Innovations VI, LLC, priority 2022, published 2025)
Like-named read-outs stand apart in the source and are kept apart here.

Key:
SARS-CoV-2 [1] = experiment: microbe, parasite or virus in culture
SARS-CoV-2 [2] = details: for Cell viability: ginkgetin 0 μM, 72 h, normalized to remdesivir 5 μM alone
SARS-CoV-2 [3] = assay type: cell-based; details: remdesivir alone, dose-dependent (FIG. 1)
[4] = tested on: SARS-CoV-2 virus [B.1.351]; assay type: in vivo, mice; details: in words
[5] = Severe acute respiratory syndrome coronavirus 2, Vero C1008, 72 h, read-out: Cell viability
[6] = Severe acute respiratory syndrome coronavirus 2, Vero C1008, read-out: host cell viability

Work on `COc1cc(O)c2c(=O)cc(-c3ccc(OC)c(-c4c(O)cc(O)c5c(=O)cc(-c6ccc(O)cc6)oc45)c3)oc2c1` [Ginkgetin] yielded a viability at 1.563 µM (SARS-CoV-2 [1]; [5]) of 18.4%, a viability at 3.125 µM (SARS-CoV-2 [1]; [5]) of 17.1% and a viability at 6.25 µM (SARS-CoV-2 [1]; [5]) of 24.5%. The viability at 12.5 µM (SARS-CoV-2 [1]; [5]) was 46.5%, the viability at 25 µM (SARS-CoV-2 [1]; [5]) was 42.6% and the viability at 50 µM (SARS-CoV-2 [1]; [5]) was 32.3%. For the same molecule, the viability at 100 µM (SARS-CoV-2 [1]; [5]) was 40.4%, the viability at 100 µM (SARS-CoV-2 [1]; [6]) was ≤ 40% and the viability (SARS-CoV-2 [2]; 1.5625-6.25 μM of ginkgetin alone) was 18-24%. For the same molecule, the host cell viability (SARS-CoV-2 [2]; ginkgetin (25-50 μM) alone, in words) was “modest improvements in host cell viability”.
Work on `CCC(CC)COC(=O)[C@H](C)N[P@](=O)(OC[C@H]1O[C@@](C#N)(c2ccc3c(N)ncnn23)[C@H](O)[C@@H]1O)Oc1ccccc1` [Remdesivir] yielded a viability at 5 µM (SARS-CoV-2 [1]; [5]) of 100%, a viability at 1.25 µM (SARS-CoV-2 [1]; [6]) of 29% and a viability at 2.5 µM (SARS-CoV-2 [1]; [6]) of 39%. It also gave a Cell viability (SARS-CoV-2 [2]; remdesivir 0.3125 μM) of 22.2%, a Cell viability (SARS-CoV-2 [2]; remdesivir 0.625 μM) of 23.2% and a Cell viability (SARS-CoV-2 [2]; remdesivir 1.25 μM) of 28.1%. For the same molecule, the Cell viability (SARS-CoV-2 [2]; remdesivir 2.5 μM) was 37.6%, the “host cell viability of SARS-CoV-2-infected Vero E6 cells” value (SARS-CoV-2 [2]; remdesivir (5 μM) alone, in words) was “dose-dependently improved host cell viability” and the “viral titers of SARS-CoV-2” value (SARS-CoV-2 [3]) was “zero”. The “infectious titers in lung” value ([4]; remdesivir 25 mg/kg intraperitoneally daily, day 4 post infection) was “strongest antiviral effect in reducing infectious titer” and the “infectious titers in lung” value ([4]; remdesivir 5, 10 or 25 mg/kg intraperitoneally daily from day 1 post infection, day 4 post infection (FIG. 2)) was “dose-dependent effect on reducing infectious titers”.
